# Measured values as given in PMC11044016 (Journal of the American Chemical Society, 2023).
# Legend:
# HBV = assay: Antiviral; format: cell-based; details: Hepatitis B virus, HePAD38, read-out: IC50 (HBV DNA released from cells)
# [1] = Balb/cJ mice, s.c. 75 mg/kg
# [2] = terminal cytosine of 3TC; stated without experiment, no reference given; cited from earlier work
smiles,measurement,setting,value
"Nc1ccn([C@H]2CS[C@@H](CO)O2)c(=O)n1 [3TC, 2’,3’-Dideoxy-3’-Thiacytidine]",IC50,HBV,170 nM
same,3TC plasma concentration after day 3,[1],no drug detectable
same,pKa,[2],around 7.2
